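Cultured in 96-well plates, cells were exposed to test compound for 48 hours across five concentrations. GI50 marks 50% less growth. The concentration for full growth arrest is given as TGI.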
Tests used:
Assay in all cases: inhibition of tumour cell growth, NCI panel, 48 h
[1] = tested on: UO-31 renal
[2] = tested on: MDA-MB-435
[3] = tested on: IGROV1 ovarian
[4] = tested on: RXF 393 renal
[5] = tested on: MDA-MB-231 breast
[6] = tested on: OVCAR-8 ovarian
[7] = tested on: SK-MEL-28 melanoma
[8] = tested on: T-47D breast
[9] = tested on: HOP-62 NSCLC
[10] = tested on: 786-0 renal
[11] = tested on: UACC-62 melanoma
[12] = tested on: A498 renal
[13] = tested on: HCC-2998 colon
[14] = tested on: SR leukemia
[15] = tested on: SNB-75 CNS
[16] = tested on: HCT-116 colon
[17] = tested on: KM12 colon
[18] = tested on: HCT-15 colon
[19] = tested on: TK-10 renal
[20] = tested on: SF-295 CNS
[21] = tested on: OVCAR-4 ovarian
[22] = tested on: NCI-H460 lung
[23] = tested on: SK-MEL-5 melanoma
[24] = tested on: HS 578T breast
[25] = tested on: UACC-257 melanoma
[26] = tested on: COLO 205 colon
[27] = tested on: SNB-19 CNS
[28] = tested on: CAKI-1 renal
[29] = tested on: NCI-H522 lung
[30] = tested on: U251 CNS
[31] = tested on: SF-539 CNS
[32] = tested on: RPMI-8226 leukemia
[33] = tested on: SK-MEL-2 melanoma
[34] = tested on: NCI-H226 lung
[35] = tested on: DU-145 prostate
[36] = tested on: PC-3 prostate
[37] = tested on: A549 NSCLC
[38] = tested on: M14 melanoma
[39] = tested on: SN12C renal
[40] = tested on: HOP-92 NSCLC
[41] = tested on: LOX IMVI melanoma
[42] = tested on: MCF7 breast
[43] = tested on: MALME-3M melanoma
[44] = tested on: EKVX NSCLC
[45] = tested on: CCRF-CEM leukemia
[46] = tested on: SW-620 colon
[47] = tested on: BT-549 breast
[48] = tested on: ACHN renal
[49] = tested on: HL-60(TB) leukemia
[50] = tested on: SK-OV-3 ovarian
[51] = tested on: OVCAR-3 ovarian
[52] = tested on: NCI/ADR-RES ovarian
[53] = tested on: OVCAR-5 ovarian
[54] = tested on: SF-268 CNS
[55] = tested on: K-562 leukemia
[56] = tested on: HT29 colon
[57] = tested on: MOLT-4 leukemia

Work on `C#C[C@]1(O)CC[C@H]2[C@@H]3CC=C4c5sc(-c6ccc(F)cn6)nc5CC[C@]4(C)[C@H]3CC[C@@]21C` yielded a GI50 [1] of 2.32 µM, a TGI [1] of 5.62 µM and a GI50 [2] of 2.28 µM. The TGI [2] was 6.84 µM, the GI50 [3] was 4.96 µM and the TGI [3] was 20.8 µM. For the same compound, the GI50 [4] was 0.309 µM, the TGI [4] was 0.956 µM and the GI50 [5] was 2.4 µM. For the same compound, the TGI [5] was 7.14 µM, the GI50 [6] was 3.16 µM and the TGI [6] was 14.3 µM. For the same compound, the GI50 [7] was 1.64 µM, the TGI [7] was 3.88 µM and the GI50 [8] was 3.43 µM. The TGI [8] was 16.1 µM, the GI50 [9] was 2.28 µM and the TGI [9] was 7.25 µM. The GI50 [10] was 1.36 µM, the TGI [10] was 3.33 µM and the GI50 [11] was 2.65 µM. For the same compound, the TGI [11] was 8.53 µM, the GI50 [12] was 2.05 µM and the TGI [12] was 4.06 µM. The GI50 [13] was 5.16 µM, the TGI [13] was 17.8 µM and the GI50 [14] was 2.21 µM. It also gave a TGI [14] of 8.39 µM, a GI50 [15] of 2.45 µM and a TGI [15] of 15 µM. The GI50 [16] was 1.8 µM, the TGI [16] was 4.3 µM and the GI50 [17] was 3.26 µM. For the same compound, the TGI [17] was 20.8 µM, the GI50 [18] was 1.89 µM and the TGI [18] was 5.11 µM. The GI50 [19] was 5.31 µM, the TGI [19] was 17.3 µM and the GI50 [20] was 1.24 µM. It also gave a TGI [20] of 2.96 µM, a GI50 [21] of 4.41 µM and a TGI [21] of 18.5 µM. It also gave a GI50 [22] of 3.03 µM, a TGI [22] of 12.5 µM and a GI50 [23] of 2.62 µM. It also gave a TGI [23] of 7.23 µM, a GI50 [24] of 1.45 µM and a TGI [24] of 5.26 µM. The GI50 [25] was 2.25 µM, the TGI [25] was 6.73 µM and the GI50 [26] was 2.62 µM. The TGI [26] was 11.1 µM, the GI50 [27] was 2.72 µM and the TGI [27] was 12.7 µM. The GI50 [28] was 2.12 µM, the TGI [28] was 6.27 µM and the GI50 [29] was 2.06 µM. The TGI [29] was 5.78 µM, the GI50 [30] was 1.68 µM and the TGI [30] was 7.05 µM. It also gave a GI50 [31] of 1.23 µM, a TGI [31] of 2.88 µM and a GI50 [32] of 0.365 µM. For the same compound, the TGI [32] was 1.72 µM, the GI50 [33] was 2.33 µM and the TGI [33] was 6.58 µM. For the same compound, the GI50 [34] was 2.93 µM, the TGI [34] was 13.1 µM and the GI50 [35] was 4.62 µM. For the same compound, the TGI [35] was 18.9 µM, the GI50 [36] was 1.73 µM and the TGI [36] was 7.64 µM. For the same compound, the GI50 [37] was 3.44 µM, the TGI [37] was 15.1 µM and the GI50 [38] was 2.77 µM. It also gave a TGI [38] of 11.7 µM, a GI50 [39] of 4.54 µM and a TGI [39] of 17.5 µM. It also gave a GI50 [40] of 2.02 µM, a TGI [40] of 6.83 µM and a GI50 [41] of 1.82 µM. For the same compound, the TGI [41] was 3.35 µM, the GI50 [42] was 1.5 µM and the TGI [42] was 3.38 µM. For the same compound, the GI50 [43] was 3.29 µM, the TGI [43] was 11.7 µM and the GI50 [44] was 2.89 µM. For the same compound, the TGI [44] was 12.9 µM, the GI50 [45] was 2.71 µM and the TGI [45] was 33.5 µM. For the same compound, the GI50 [46] was 2.62 µM, the TGI [46] was 8.01 µM and the GI50 [47] was 1.77 µM. It also gave a TGI [47] of 5.02 µM, a GI50 [48] of 3.43 µM and a TGI [48] of 14 µM. For the same compound, the GI50 [49] was 2.77 µM, the TGI [49] was 10.9 µM and the GI50 [50] was 2.29 µM. For the same compound, the TGI [50] was 5.64 µM, the GI50 [51] was 3.86 µM and the TGI [51] was 72.4 µM. The GI50 [52] was 4.12 µM, the TGI [52] was 23.6 µM and the GI50 [53] was 4.01 µM. For the same compound, the TGI [53] was 14.8 µM, the GI50 [54] was 3.46 µM and the TGI [54] was 18.4 µM. The GI50 [55] was 2.49 µM, the TGI [55] was over 100 µM and the GI50 [56] was 2.02 µM. The TGI [56] was 4.6 µM, the GI50 [57] was 2.01 µM and the TGI [57] was 8.06 µM.

From PubChem BioAssay (NCI)
